target: T1, Asialoglycoprotein receptor 1 (Homo sapiens) (UniProt P07306); experiment: Inhibition of D-GalNAc-PAA binding to human recombinant ASGPR1 carbohydrate recognition domain expressed in Escherichia coli AD494 by competitive solid-phase binding assay relative to D-GalNAc
T1 sequence (whole entry): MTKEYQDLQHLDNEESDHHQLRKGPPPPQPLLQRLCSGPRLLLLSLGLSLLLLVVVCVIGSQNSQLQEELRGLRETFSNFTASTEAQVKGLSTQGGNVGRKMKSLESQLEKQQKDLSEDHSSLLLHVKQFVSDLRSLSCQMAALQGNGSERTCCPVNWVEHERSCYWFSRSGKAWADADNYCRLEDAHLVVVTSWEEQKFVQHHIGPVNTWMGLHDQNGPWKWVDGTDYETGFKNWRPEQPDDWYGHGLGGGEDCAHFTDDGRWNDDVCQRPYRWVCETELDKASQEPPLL

Ratio IC50	SMILES
8.7	O=C(O)c1ccc(OCc2cn([C@H]3CO[C@H](CO)[C@H](O)[C@@H]3O)nn2)cc1
1.1	OC[C@H]1OC[C@H](n2cc(COc3ccccc3)nn2)[C@@H](O)[C@H]1O
0.9	CN1CCN(c2ccc(OCc3cn([C@H]4CO[C@H](CO)[C@H](O)[C@@H]4O)nn3)cc2)CC1
1	CC(=O)N[C@H]1C(O)O[C@H](CO)[C@H](O)[C@@H]1O (some centres not stated)

The next lines start with the molecule.

SMILES	Ratio IC50
O=S(=O)(Nc1ccc(OCc2cn([C@H]3CO[C@H](CO)[C@H](O)[C@@H]3O)nn2)cc1)C(F)(F)F	Insoluble
N#Cc1ccc(OCc2cn([C@H]3CO[C@H](CO)[C@H](O)[C@@H]3O)nn2)cc1	0.5
[N-]=[N+]=N[C@H]1CO[C@H](CO)[C@H](O)[C@@H]1O	13.7
O=[N+]([O-])c1ccc(OCc2cn([C@H]3CO[C@H](CO)[C@H](O)[C@@H]3O)nn2)cc1	0.8
OC[C@H]1OC[C@H](n2cc(COc3c(F)c(F)c(F)c(F)c3F)nn2)[C@@H](O)[C@H]1O	1.4

target: not listed separately; experiment: Inhibition of [125I]asialoorosomucoid binding to rabbit hepatic ASGPR1; parameters: species or system Oryctolagus cuniculus

SMILES	IC50
OC[C@H]1O[C@@H](O)[C@H](O)[C@@H](O)[C@@H]1O [beta-D-Glucose]	60 mM
OC[C@H]1O[C@@H](O)[C@H](O)[C@@H](O)[C@H]1O [b-D-GALACTOSE]	1.7 mM

target: T1, Asialoglycoprotein receptor 1 (Homo sapiens); experiment: Inhibition of D-GalNAc binding to human recombinant ASGPR1 carbohydrate recognition domain expressed in Escherichia coli AD494 by competitive NMR binding assay relative to D-GalNAc

SMILES	relative binding affinity (RBA)
N#Cc1ccc(OCc2cn([C@H]3CO[C@H](CO)[C@H](O)[C@@H]3O)nn2)cc1	1.9
